Source: patent US20240218022A1, “ANTI-VISTA MACROCYCLIC PEPTIDES AND COMPOSITIONS” (BRISTOL-MYERS SQUIBB COMPANY, priority 2022, published 2024)
Positions of bridges follow the written chain, without caps; N, C: chain ends. Non-standard residues stand in square brackets, D forms with d. Residues, ends and D or L forms follow the SMILES beside them. 2Nal = N[C@@H](Cc1ccc2ccccc2c1)C(=O)O; Tic = O=C(O)[C@@H]1Cc2ccccc2CN1; Ahp(2) = CCCCC[C@H](N)C(=O)O; NMeNle = CCCC[C@H](NC)C(=O)O; NHexGly = CCCCCCNCC(=O)O; Nle = CCCC[C@H](N)C(=O)O; Orn = NCCC[C@H](N)C(=O)O

Target: T1, mouse VISTA (mVISTA) (Mus musculus, UniProt Q9D659)
T1 construct: expressed in transfected cells; host or cells: Human embryonic kidney 293T cells
T1 sequence (Q9D659 33-308): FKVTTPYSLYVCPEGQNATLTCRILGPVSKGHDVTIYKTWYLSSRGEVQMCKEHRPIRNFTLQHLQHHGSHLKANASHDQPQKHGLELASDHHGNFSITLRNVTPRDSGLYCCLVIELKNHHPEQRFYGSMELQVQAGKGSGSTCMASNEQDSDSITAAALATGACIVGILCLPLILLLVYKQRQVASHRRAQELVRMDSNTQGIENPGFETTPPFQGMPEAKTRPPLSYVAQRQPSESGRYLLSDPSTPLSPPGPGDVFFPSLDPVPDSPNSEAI
Experiment: Cell-Based Binding High-Content Assay For mVISTA (HC CBA mVISTA)
Conditions: cell-based binding high-content assay, mVISTA; the 16th table; read-out: HC CBA mVISTA IC50
Procedure: Cell-Based Binding High-Content Assay For mVISTA
Human embryonic kidney 293T cells (293T) expressing mouse VISTA (mVISTA) were used for the assessment of compounds competing with the binding of a biotinylated peptide. Cryopreserved cells were thawed in a 37° C. water bath and incubated overnight at a 37° C./5% CO2 incubator in assay culture media DMEM (Life Technologies Inc. Cat. No. 11995-126) supplemented with 10% (v/v) FBS (Sigma, Cat. No. F4135), 1× Penicillin/Streptomycin (Life Technologies Inc. Cat. No. 15140-122). Cells were harvested, washed and resuspended in DMEM media […]. To test compounds under “no-wash” condition, cells were seeded into PDL-coated 384 well plates (Corning, Cat. No. 356663) at 4,000 cells/20 μL. After incubating the cell plates for two hours at a 37° C./5% CO2 incubator, 125 nL of test compound was added using an ECHO. Alternatively, to test compounds under “wash” condition, test compounds were added first, followed by addition of 20 μL cells at a density of 4000 cells/well. After incubation for an hour, the media was removed, followed by addition of 20 μL of fresh media ( ), and plates were then incubated for another hour. To plates either under “no wash” or “wash” condition, the biotinylated peptide was added to a final concentration of 2 nM, and plates were incubated at room temperature for 30 minutes. Fifteen (15) μL of Alexa 647 conjugated Streptavidin (Life Tech, Cat. No. S21374), suspended at 2 μg/ml in media, was added to the assay plate and incubate for 30 minutes. Cells were fixed by adding 15 μL of formaldehyde at a final concentration of 8% (w/v) (Sigma Cat. No. 252549), 20 μg/mL Hoechst (Thermo Scientific Cat. No. 62249) in PBS for 10 minutes at room temperature. The plates were washed 3 times in dPBS, sealed, and read on a CellInsight NXT High Content Screening Platform IC903000 (Thermo Scientific). The 50% effective concentration (IC50) was calculated using the four-parameter logistic formula y=A+((B−A)/(1+((C/x)^D))), where A and B denote minimal and maximal % inhibition, respectively, C is the EC50, D is hill slope and x represent compound concentration.

Row | SMILES | IC50
1 | CCCCCCN1CC(=O)N[C@@H](Cc2ccc(O)cc2)C(=O)N[C@@H](CC(C)C)C(=O)N[C@@H](CC(=O)O)C(=O)N[C@@H](CCCNC(=N)N)C(=O)N[C@@H](CC(C)C)C(=O)N[C@@H](CCCCC)C(=O)N2CCC[C@H]2C(=O)N[C@@H](C(C)C)C(=O)N[C@@H](CC(=O)O)C(=O)N[C@H](C(=O)NCC(=O)O)CSCC(=O)N[C@@H](Cc2ccc3ccccc3c2)C(=O)N[C@@H](Cc2ccc(O)cc2)C(=O)N[C@@H](CC(=O)O)C1=O [Ex 1278] ({CH2CO}-[2Nal]YD[NHexGly]YLDRL[Ahp(2)]PVDCG-OH; thioether N-14) | 24 nM
2 | CCCCCCN1CC(=O)N[C@@H](Cc2ccc(O)cc2)C(=O)N[C@@H](CCCCC)C(=O)N[C@@H](CC(=O)O)C(=O)N[C@@H](CCCNC(=N)N)C(=O)N[C@@H](CC(C)C)C(=O)N[C@@H](CCCCC)C(=O)N2CCC[C@H]2C(=O)N[C@@H](C(C)C)C(=O)N[C@@H](CC(=O)O)C(=O)N[C@H](C(=O)NCC(N)=O)CSCC(=O)N[C@@H](Cc2ccc3ccccc3c2)C(=O)N[C@@H](Cc2ccc(O)cc2)C(=O)N[C@@H](CC(=O)O)C1=O [Ex 1279] ({CH2CO}-[2Nal]YD[NHexGly]Y[Ahp(2)]DRL[Ahp(2)]PVDCG-NH2; thioether N-14) | 26.6 nM
3 | CCCCCCN1CC(=O)N[C@@H](Cc2ccc(O)cc2)C(=O)N[C@@H](C(C)C)C(=O)NCC(=O)N[C@@H](CCCNC(=N)N)C(=O)N[C@@H](CC(C)C)C(=O)N[C@@H](CCCCC)C(=O)N2CCC[C@H]2C(=O)N[C@@H](C(C)C)C(=O)N[C@@H](CC(=O)O)C(=O)N[C@H](C(=O)NCC(=O)O)CSCC(=O)N[C@@H](Cc2ccc3ccccc3c2)C(=O)N[C@@H](Cc2ccc(O)cc2)C(=O)N[C@@H](CC(=O)O)C1=O [Ex 1280] ({CH2CO}-[2Nal]YD[NHexGly]YVGRL[Ahp(2)]PVDCG-OH; thioether N-14) | 33.7 nM
4 | CCCCCCN1CC(=O)N[C@@H](Cc2ccc(O)cc2)C(=O)N[C@@H](CC(C)C)C(=O)NCC(=O)N[C@@H](CCCNC(=N)N)C(=O)N[C@@H](CC(C)C)C(=O)N[C@@H](CCCCC)C(=O)N2CCC[C@H]2C(=O)N[C@@H](C(C)C)C(=O)N[C@@H](CC(=O)O)C(=O)N[C@H](C(=O)NCC(N)=O)CSCC(=O)N[C@@H](Cc2ccc3ccccc3c2)C(=O)N[C@@H](Cc2ccc(O)cc2)C(=O)N[C@@H](CC(=O)O)C1=O [Ex 1281] ({CH2CO}-[2Nal]YD[NHexGly]YLGRL[Ahp(2)]PVDCG-NH2; thioether N-14) | 22.9 nM
5 | CCCCCCN1CC(=O)N[C@@H](Cc2ccc(O)cc2)C(=O)N[C@@H](CC(C)C)C(=O)NCC(=O)N[C@@H](CCCNC(=N)N)C(=O)N[C@@H](CC(C)C)C(=O)N[C@@H](CCCCC)C(=O)N2CCC[C@H]2C(=O)N[C@@H](C(C)C)C(=O)N[C@@H](CC(=O)O)C(=O)N[C@H](C(=O)NCC(=O)O)CSCC(=O)N[C@@H](Cc2ccc3ccccc3c2)C(=O)N[C@@H](Cc2ccc(O)cc2)C(=O)N[C@@H](CC(=O)O)C1=O [Ex 1282] ({CH2CO}-[2Nal]YD[NHexGly]YLGRL[Ahp(2)]PVDCG-OH; thioether N-14) | 11.7 nM
6 | CCCCCCN1CC(=O)N[C@@H](Cc2ccc(O)cc2)C(=O)N[C@@H](C(C)C)C(=O)NCC(=O)N[C@@H](CCCNC(=N)N)C(=O)N[C@@H](CC(C)C)C(=O)N[C@@H](CCCCC)C(=O)N2CCC[C@H]2C(=O)N[C@@H](C(C)C)C(=O)N[C@@H](CC(=O)O)C(=O)N[C@H](C(=O)NCC(N)=O)CSCC(=O)N[C@@H](Cc2ccc3ccccc3c2)C(=O)N[C@@H](Cc2ccc(O)cc2)C(=O)N[C@@H](CC(=O)O)C1=O [Ex 1283] ({CH2CO}-[2Nal]YD[NHexGly]YVGRL[Ahp(2)]PVDCG-NH2; thioether N-14) | 18.9 nM

Second part, the compound after the results:

Row | IC50 | SMILES
7 | 3.6 nM | CCCCCCN1CC(=O)N[C@@H](Cc2ccc(O)cc2)C(=O)N[C@@H](CCCC)C(=O)NCC(=O)N[C@@H](CCCNC(=N)N)C(=O)N[C@@H](CC(C)C)C(=O)N[C@@H](CCCCC)C(=O)N2CCC[C@H]2C(=O)N[C@@H](C(C)C)C(=O)N[C@@H](CC(=O)O)C(=O)N[C@H](C(=O)NCC(N)=O)CSCC(=O)N[C@@H](Cc2ccc3ccccc3c2)C(=O)N[C@@H](Cc2ccc(O)cc2)C(=O)N[C@@H](CC(=O)O)C1=O [Ex 1284] ({CH2CO}-[2Nal]YD[NHexGly]Y[Nle]GRL[Ahp(2)]PVDCG-NH2; thioether N-14)
8 | 8.3 nM | CCCCCCN1CC(=O)N[C@@H](Cc2ccc(O)cc2)C(=O)N[C@@H](CCCC)C(=O)NCC(=O)N[C@@H](CCCNC(=N)N)C(=O)N[C@@H](CC(C)C)C(=O)N[C@@H](CCCCC)C(=O)N2CCC[C@H]2C(=O)N[C@@H](C(C)C)C(=O)N[C@@H](CC(=O)O)C(=O)N[C@H](C(=O)NCC(=O)O)CSCC(=O)N[C@@H](Cc2ccc3ccccc3c2)C(=O)N[C@@H](Cc2ccc(O)cc2)C(=O)N[C@@H](CC(=O)O)C1=O [Ex 1285] ({CH2CO}-[2Nal]YD[NHexGly]Y[Nle]GRL[Ahp(2)]PVDCG-OH; thioether N-14)
9 | 39.2 nM | CCCCCCN1CC(=O)N[C@@H](Cc2ccc(O)cc2)C(=O)N[C@@H](CC(C)C)C(=O)NCC(=O)N[C@@H](CCCNC(=N)N)C(=O)N[C@@H](CC(C)C)C(=O)N[C@@H](CCCCC)C(=O)N2CCC[C@H]2C(=O)N[C@@H](C(C)C)C(=O)N[C@@H](CCC(=O)O)C(=O)N[C@H](C(=O)NCC(N)=O)CSCC(=O)N[C@@H](Cc2ccc3ccccc3c2)C(=O)N[C@@H](Cc2ccc(O)cc2)C(=O)N[C@@H](CC(=O)O)C1=O [Ex 1286] ({CH2CO}-[2Nal]YD[NHexGly]YLGRL[Ahp(2)]PVECG-NH2; thioether N-14)
10 | 42.7 nM | CCCCCCN1CC(=O)N[C@@H](Cc2ccc(O)cc2)C(=O)N[C@@H](CCCC)C(=O)NCC(=O)N[C@@H](CCCNC(=N)N)C(=O)N[C@@H](CC(C)C)C(=O)N[C@@H](CCCCC)C(=O)N2CCC[C@H]2C(=O)N[C@@H](C(C)C)C(=O)N[C@@H](CCC(=O)O)C(=O)N[C@H](C(=O)NCC(N)=O)CSCC(=O)N[C@@H](Cc2ccc3ccccc3c2)C(=O)N[C@@H](Cc2ccc(O)cc2)C(=O)N[C@@H](CC(=O)O)C1=O [Ex 1287] ({CH2CO}-[2Nal]YD[NHexGly]Y[Nle]GRL[Ahp(2)]PVECG-NH2; thioether N-14)
11 | 16.7 nM | CCCCCCN1CC(=O)N[C@@H](Cc2ccc(O)cc2)C(=O)N[C@@H](CCCCN)C(=O)NCC(=O)N[C@@H](CCCN)C(=O)N[C@@H](CC(C)C)C(=O)N[C@@H](CCCCC)C(=O)N2CCC[C@H]2C(=O)N[C@@H](C(C)C)C(=O)N[C@@H](CO)C(=O)N[C@H](C(=O)NCC(=O)O)CSCC(=O)N[C@@H](Cc2ccc3ccccc3c2)C(=O)N[C@@H](Cc2ccc(O)cc2)C(=O)N[C@@H](CC(=O)O)C1=O [Ex 1288] ({CH2CO}-[2Nal]YD[NHexGly]YKG[Orn]L[Ahp(2)]PVSCG-OH; thioether N-14)
12 | 25.2 nM | CCCCCCN1CC(=O)N[C@@H](Cc2ccc(O)cc2)C(=O)N[C@@H](CCCCN)C(=O)N[C@@H](CC(=O)O)C(=O)N[C@@H](CCCN)C(=O)N[C@@H](CC(C)C)C(=O)N[C@@H](CCCCC)C(=O)N2CCC[C@H]2C(=O)N[C@@H](C(C)C)C(=O)N[C@@H](CO)C(=O)N[C@H](C(=O)NCC(=O)O)CSCC(=O)N[C@@H](Cc2ccc3ccccc3c2)C(=O)N[C@@H](Cc2ccc(O)cc2)C(=O)N[C@@H](CC(=O)O)C1=O [Ex 1289] ({CH2CO}-[2Nal]YD[NHexGly]YKD[Orn]L[Ahp(2)]PVSCG-OH; thioether N-14)
13 | 11.5 nM | CCCCCCN1CC(=O)N[C@@H](Cc2ccc(O)cc2)C(=O)N[C@@H](CC(C)C)C(=O)NCC(=O)N[C@@H](CCCNC(=N)N)C(=O)N2Cc3ccccc3C[C@H]2C(=O)N[C@@H](CCCCC)C(=O)N2CCC[C@H]2C(=O)N[C@@H](C(C)C)C(=O)N[C@@H](CO)C(=O)N[C@H](C(=O)NCC(=O)O)CSCC(=O)N[C@@H](Cc2ccc3ccccc3c2)C(=O)N[C@@H](Cc2ccc(O)cc2)C(=O)N[C@@H](CC(=O)O)C1=O [Ex 1290] ({CH2CO}-[2Nal]YD[NHexGly]YLGR[Tic][Ahp(2)]PVSCG-OH; thioether N-14)
14 | 5.1 nM | CCCCCCN1CC(=O)N[C@@H](Cc2ccc(O)cc2)C(=O)N[C@@H](CC(C)C)C(=O)NCC(=O)N[C@@H](CCCNC(=N)N)C(=O)N(C)[C@@H](CCCC)C(=O)N[C@@H](CCCCC)C(=O)N2CCC[C@H]2C(=O)N[C@@H](C(C)C)C(=O)N[C@@H](CO)C(=O)N[C@H](C(=O)NCC(=O)O)CSCC(=O)N[C@@H](Cc2ccc3ccccc3c2)C(=O)N[C@@H](Cc2ccc(O)cc2)C(=O)N[C@@H](CC(=O)O)C1=O [Ex 1291] ({CH2CO}-[2Nal]YD[NHexGly]YLGR[NMeNle][Ahp(2)]PVSCG-OH; thioether N-14)
